Here are results for six compounds from US20070232594A1, “Aromatic amide derivatives, medicinal compositions containing the same, medical uses of both” (priority 2004, published 2007).

For experiment [1], the target named is T1, human V2 receptor (Homo sapiens, UniProt P30518). The experiment can be described thus: Study to confirm the agonism of human V2 receptor (intracellular Ca2+, HEK293 cells coexpressing human V2 receptor and Gqs chimeric protein). The format is cell-based. The arrangement: expressed in transfected cells; host or cells: HEK293 cells (American Type Culture Collection), transient transfection with pCI-neo/hV2 and pLEC-Gqs5. The note with it: for EC50: intracellular Ca2+, HEK293 cells coexpressing human V2 receptor and Gqs; for IA (intrinsic activity): maximum response relative to AVP = 1. The procedure:
The Study to Confirm the Agonism of Human V2 Receptor
The experiment to confirm the response of the test compounds to human V2 receptor was carried out using the cells prepared as described below in order to use this confirmation study to see the agonism of human V2 receptor of the test compounds.
The test compounds were dissolved in dimethylsulfoxide at 10 mM and solutions of the test compounds were prepared by 10-fold serial dilution with the Assay buffer (0.1% BSA, 20 mM HEPES/Hank's balanced salt solution, pH 7.4) at the concentration of 0.1 nM to 10 μM, which were used in this study.
Human V2 receptor couples with Gs protein, one of the G-coupling protein, and consequently produces cyclic adenosine 3′, 5′-monophosphate (cAMP) via adenylate cyclase. This cAMP produce can be substituted to intracellular increase of Ca^2+ with coexpressing Gqs, a chimeric protein, and human V2 receptor (Mol. Pharmacol., Vol. 50, pp. 885-890, 1996). The responses of the test compounds for human V2 receptor were quantified by measuring this intracellular Ca^2+. The changes of intracellular Ca^2+ after adding the test compounds at each concentration as mentioned above (0.1 nM to 10 μM) were measured with a FlexStation (Molecular Devices) using a FLIPR CALCIUM ASSAY KIT (Molecular Devices).
The intrinsic activities (IA) of the test compounds were calculated from the maximum response of the test compounds as that of AVP was considered to be 1. In case of a full agonist, the EC50 values of the test compounds were calculated as the maximum response of AVP was considered to be 100% and in the case of a partial agonist, EC50 values of test compounds were calculated as the maximum response of own test compounds were considered to be 100%. The concentration that achieved to 50% response of the maximum response in a concentration-response curve was considered as EC50 value. The values of EC50 obtained in this study were shown in Table 68 described below as indications of the agonism of human V2 receptor.
The Preparation of the Cells Using Confirmation Study of an Agonism of Human V2, Receptor (HEK293 Cells Coexpressed Human V2 Receptor and Gqs Chimeric Protein)
HEK293 cells (American Type Culture Collection) were incubated in the Eagle's Minimum Essential Medium (EMEM, Invitrogen) containing 1 mM sodium pyruvate, nonessential amino acids (0.1 mM), streptomycin (100 μg/mL), penicillin (100 U/mL), 10% fetal calf serum (Sanko chemicals) in an incubator with 5% CO2 at 37° C. The transfection was carried out by adding pCI-neo hV2 expression vector, expression vector inserted with the sequence coding Gqs chimeric protein (pLEC-Gqs5, LiveWare, Molecular Devices) and Lipofectamine2000 (Invitrogen), all diluted with OPTI-MEM I Reduced Serum Medium I (Invitrogen), to the cell suspension which was prepared from the confluent cells suspended with EMEM as mentioned above without antibiotics at 1×10^6 cells/mL. After the transfection, the cells (HEK293 cells coexpressed human V2 receptor and Gqs chimeric protein) were incubated in an incubator with 5% CO2 for two days and were used as cells for confirming agonism of human V2 receptor, and used for assessment of the test compounds. The expression plasmid vector of human V2 receptor represented as pCI-neo/hV2 above was constructed by the method as described below.
The Method of Construction of Human V2 Receptor Expression Plasmid Vector
cDNA library was obtained from reverse transcription of human kidney total RNA using SuperScript II RNase H-reverse transcriptase (Invitrogen) and oligo dT. The DNA fragment encoding human V2 receptor was amplified by the PCR method using the cDNA library as a template, primers used in combination of each forward primer (sequence no. 1-3 shown below) and each reverse primer (sequence no. 4-6 shown below) respectively and pfu DNA polymerase (Stratagene). This amplified DNA fragment and pCR-blunt kit (Invitrogen), a cloning plasmid vector, were ligated by a general method of the kit. […]

The target of experiment [2] is T1, human V2 receptor. The experiment in a line: Binding experiment for human V2 receptor ([3H]-AVP displacement, CHO cell membranes). Details: purchased Packard BioScience; host or cells: CHO cells (membranes). The note with it: [3H]-AVP binding, CHO cell membranes expressing human V2 receptor; Ki calculated from IC50 and Kd. The procedure:
Binding Experiment for Human V2 Receptor
Test compounds were dissolved in dimethylsulfoxide at 10 mM. The affinities for human V2 receptor were determined by an inhibition against [^3H]-Arginie vasopressin (AVP) (Perkin elmer Japan) binding to the human V2 receptor using CHO cell membranes expressed human V2 receptor (Packard BioScience). Cell membranes suspension was prepared by suspending the cell membranes as mentioned above with Assay buffer (50 mM Tris-HCl, 10 mM MgCl2, 0.1% bovine serum albumin (BSA), pH7.4) at an adequate protein concentration. The test compound solutions were prepared by diluting the dimethylsulfoxide solution of the test compound as mentioned above with Assay buffer at final concentration of 10 nM, 100 nM, 1 μM and 10 μM (in this diluting procedure, concentration of dimethylsulfoxide was adjusted to be 0.5% at each concentration of the test compound). Cell membranes suspension (50 μL), 3 nM of [^3H]-AVP (50 μL), Assay buffer (50 μL) and the solution of the test compounds at each concentrations (50 μL) were added to MultiScreen 96-well plate (Millipore) and the mixture was incubated for an hour at 25° C. with shaking slightly. After filtration by aspiration, the plate was washed with ice-cold washing buffer (50 mM Tris-HCl, 10 mM MgCl2, pH 7.4) for three times. After dry the plate, Microscinti-20 (Packard) was added to each well and the plate was shaken slightly, and then radioactivities of each well were counted with a micro plate scintillation counter, TopCount (Packard). Non-specific binding of [^3H]-AVP for cell membranes was determined by adding 1 μM of cold AVP substituted for the test compounds. The concentration of the test compounds inhibiting the specific binding of [^3H]-AVP by 50% was considered as IC50 value.
The Calculation of Kd Value of [^3H]-AVP for the Cell Membranes Expressed Human V2 Receptor
The suspension of the cell membranes expressed human V2 receptor was prepared with diluting adequately with the Assay buffer as mentioned above. In consideration for the radioactivity of [^3H]-AVP, six different concentrations (final concentration; ranging from approximately 100 pM to 6000 pM) of [^3H]-AVP were prepared by serial dilution by from 2 to 3 fold with the Assay buffer. The cell membranes suspension (50 μL), each concentrations of [^3H]-AVP (50 μL), the Assay buffer (50 μL) and 1 μM of cold AVP or the Assay buffer were added to MultiScreen 96-well plate (Millipore) and the mixture was incubated for an hour at 25° C. with shaking slightly. The specific bindings (Bvalue) of each concentrations of the [^3H]-AVP were determined by the method as mentioned above and free-bound contents (F value) at each concentrations of the [^3H]-AVP were determined. The Kd value was calculated by Scatchard analysis using the B value and the F value.

T1 sequence (P30518 whole entry): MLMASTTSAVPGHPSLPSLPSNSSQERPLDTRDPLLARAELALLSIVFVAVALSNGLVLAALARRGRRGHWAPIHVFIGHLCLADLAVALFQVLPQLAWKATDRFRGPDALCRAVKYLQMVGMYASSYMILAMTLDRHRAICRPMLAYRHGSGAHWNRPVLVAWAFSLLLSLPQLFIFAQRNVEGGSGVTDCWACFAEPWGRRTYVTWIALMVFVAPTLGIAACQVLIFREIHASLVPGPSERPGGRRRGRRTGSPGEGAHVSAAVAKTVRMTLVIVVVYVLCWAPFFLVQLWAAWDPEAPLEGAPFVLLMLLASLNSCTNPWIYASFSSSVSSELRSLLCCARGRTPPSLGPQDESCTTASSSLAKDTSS

Regarding `Cc1nnc(CN2Cc3ccccc3N(C(=O)c3ccc(-n4cccn4)nc3)CC2=O)o1` [Example 1-29, 4-(5-methyl-1,3,4-oxadiazol-2-yl-methyl)-1-[6-(pyrazol-1-yl)py-ridine-3-carbonyl]-1,2,4,5-tetra-hydrobenzo[e]-1,4-di-azepin-3-one], in experiment [1], the EC50 (usually the concentration needed to bring the measured effect to its halfway point) amounted to 50 nM and the “IA (intrinsic activity)” value was determined as 0.93.
Consider `Cc1cnc(CN2Cc3ccccc3N(C(=O)c3ccc(OCCO)cc3Cl)CC2=O)o1` [Example 2-21, 1-[2-chloro-4-(2-hydroxyethoxy)benzoyl]-4-(5-methyloxazole-2-ylmethyl)-1,2,4,5-tetrahydrobenzo[e]-1,4-diazepin-3-one], for which, in experiment [1], the EC50 was 6 nM and the “IA (intrinsic activity)” value is given as 1.09. Also, the Ki – broadly, a dissociation constant, usually derived from enzyme kinetics or from competition with a known ligand – in experiment [2] was 322 nM.
The like results for `O=C1CN(C(=O)c2ccc(N3CCCC3)cc2Cl)c2ccccc2CN1Cc1nnn[nH]1` [Example 15, 1-(2-Chloro-4-pyrrolidin-1-ylbenzoyl)-4-(1H-tetrazol-5-ylmethyl)-1,2,4,5-tetrahydrobenzo[e]-1,4-diazepin-3-one] were, in that order, 1 nM, 1.09 and 97.7 nM.
The corresponding values for `O=C(O)CN1Cc2ccccc2N(C(=O)c2ccc(-c3ccccc3)cc2)CC1=O` [Example 31-11, 1-(biphenyl-4-carbonyl)-3-oxo-1,2,3,5-tetrahydrobenzo[e]-1,4-diazepin-4-ylacetic acid] are 39 nM, 0.35 and 103 nM.
Consider `O=C(O)CN1Cc2ccccc2N(C(=O)c2ccc(OCC(F)(F)F)cc2Cl)CC1=O` [Example 2-5, 1-[2-chloro-4-(2,2,2-trifluoroethoxy)-benzoyl]-3-oxo-1,2,3,5-tetrahydrobenzo[e]-1,4-diazepin-4-yl acetic acid], for which the EC50 in experiment [1] was 10 nM. Besides, the Ki in experiment [2] was 197 nM.
Regarding `Cc1nnc(CN2Cc3ccccc3N(C(=O)c3ccc(OCCCO)nc3C)CC2=O)o1` [Example 31-8, 1-[6-(3-hydroxypropoxy)-2-methylpyridine-3-carbonyl]-4-(5-methyl-1,3,4-oxadiazol-2-ylmethyl)-1,2,4,5-tetrahydrobenzo[e]-1,4-diazepin-3-one], in experiment [1], the EC50 was determined as 44 nM and the “IA (intrinsic activity)” value was found to be 1.18.
